Reference: patent US10004701B2, “Methods and compositions for treating infection” (UNIVERSITY OF ROCHESTER, priority 2012, dated 2018)
Counter-ions that a name gives are not always drawn. Like-named read-outs stand apart in the source and are kept apart here.

Experiments:
Test in all cases: AK assay 384-well format, Prestwick library screening
E. faecium = type: cell-based, Enterococcus faecium; conditions: Enterococcus faecium, 3 h, 50 μM final drug concentration
[1] = test system: S. aureus strain USA300-0114; type: cell-based, Staphylococcus aureus; conditions: Staphylococcus aureus, USA300, 3 h, 50 μM final drug concentration
K. pneumoniae = type: cell-based, Klebsiella pneumoniae; conditions: Klebsiella pneumoniae, 3 h, 50 μM final drug concentration
[2] = test system: A. baumannii strain 98-37-09; type: cell-based, Acinetobacter baumannii; conditions: Acinetobacter baumannii, 983709, 3 h, 50 μM final drug concentration
P. aeruginosa = type: cell-based, Pseudomonas aeruginosa; conditions: Pseudomonas aeruginosa, 3 h, 50 μM final drug concentration
E. cloacae = type: cell-based, Enterobacter cloacae; conditions: Enterobacter cloacae, 3 h, 50 μM final drug concentration
E. coli = type: cell-based, Escherichia coli; conditions: Escherichia coli, 3 h, 50 μM final drug concentration
[3] = planktonic, cutoff for positive-scoring molecules 3-fold increase, read-out: AK-based Prestwick Library Screening Results, E. faecium (fold increase in extracellular AK activity)
[4] = planktonic, cutoff for positive-scoring molecules 3-fold increase, read-out: AK-based Prestwick Library Screening Results, S. aureus (fold increase in extracellular AK activity)
[5] = planktonic, cutoff for positive-scoring molecules 3-fold increase, read-out: AK-based Prestwick Library Screening Results, K. pneumoniae (fold increase in extracellular AK activity)
[6] = planktonic, cutoff for positive-scoring molecules 3-fold increase, read-out: AK-based Prestwick Library Screening Results, A. baumannii (fold increase in extracellular AK activity)
[7] = planktonic, cutoff for positive-scoring molecules 3-fold increase, read-out: AK-based Prestwick Library Screening Results, P. aeruginosa (fold increase in extracellular AK activity)
[8] = planktonic, cutoff for positive-scoring molecules 3-fold increase, read-out: AK-based Prestwick Library Screening Results, E. cloacae (fold increase in extracellular AK activity)
[9] = planktonic, cutoff for positive-scoring molecules 3-fold increase, read-out: AK-based Prestwick Library Screening Results, E. coli (fold increase in extracellular AK activity)
[10] = planktonic, cutoff for positive 3-fold increase, read-out: AK-based Prestwick Library Screening Results, E. faecium (fold increase in extracellular AK activity)
[11] = planktonic, cutoff for positive 3-fold increase, read-out: AK-based Prestwick Library Screening Results, S. aureus (fold increase in extracellular AK activity)
[12] = planktonic, cutoff for positive 3-fold increase, read-out: AK-based Prestwick Library Screening Results, K. pneumoniae (fold increase in extracellular AK activity)
[13] = planktonic, cutoff for positive 3-fold increase, read-out: AK-based Prestwick Library Screening Results, A. baumannii (fold increase in extracellular AK activity)
[14] = planktonic, cutoff for positive 3-fold increase, read-out: AK-based Prestwick Library Screening Results, P. aeruginosa (fold increase in extracellular AK activity)
[15] = planktonic, cutoff for positive 3-fold increase, read-out: AK-based Prestwick Library Screening Results, E. cloacae (fold increase in extracellular AK activity)
[16] = planktonic, cutoff for positive 3-fold increase, read-out: AK-based Prestwick Library Screening Results, E. coli (fold increase in extracellular AK activity)
[17] = planktonic E. faecium, 384-well, cutoff for positive-scoring molecules 3-fold increase, read-out: AK-based Prestwick Library Screening Results: E. faecium (increase in extracellular AK activity)
[18] = planktonic S. aureus, 384-well, cutoff for positive-scoring molecules 3-fold increase, read-out: AK-based Prestwick Library Screening Results: S. aureus (increase in extracellular AK activity)
[19] = planktonic K. pneumoniae, 384-well, cutoff for positive-scoring molecules 3-fold increase, read-out: AK-based Prestwick Library Screening Results: K. pneumoniae (increase in extracellular AK activity)
[20] = planktonic A. baumannii, 384-well, cutoff for positive-scoring molecules 3-fold increase, read-out: AK-based Prestwick Library Screening Results: A. baumannii (increase in extracellular AK activity)
[21] = planktonic P. aeruginosa, 384-well, cutoff for positive-scoring molecules 3-fold increase, read-out: AK-based Prestwick Library Screening Results: P. aeruginosa (increase in extracellular AK activity)
[22] = planktonic E. cloacae, 384-well, cutoff for positive-scoring molecules 3-fold increase, read-out: AK-based Prestwick Library Screening Results: E. cloacae (increase in extracellular AK activity)
[23] = planktonic E. coli, 384-well, cutoff for positive-scoring molecules 3-fold increase, read-out: AK-based Prestwick Library Screening Results: E. coli (increase in extracellular AK activity)

## CN(C)CCCSC(=N)N [Dimaprit dihydrochloride]
E. faecium; planktonic E. faecium, positive cutoff 3-fold increase, read-out: AK-based Prestwick library screening result, E. faecium (fold increase in extracellular AK activity)
  fold induction at 50 µM: 0.9
[1]; planktonic S. aureus, positive cutoff 3-fold increase, read-out: AK-based Prestwick library screening result, S. aureus (fold increase in extracellular AK activity)
  fold induction at 50 µM: 0.7
K. pneumoniae; planktonic K. pneumoniae, positive cutoff 3-fold increase, read-out: AK-based Prestwick library screening result, K. pneumoniae (fold increase in extracellular AK activity)
  fold induction at 50 µM: 0.7
[2]; planktonic A. baumannii, positive cutoff 3-fold increase, read-out: AK-based Prestwick library screening result, A. baumannii (fold increase in extracellular AK activity)
  fold induction at 50 µM: 0.8
P. aeruginosa; planktonic P. aeruginosa, positive cutoff 3-fold increase, read-out: AK-based Prestwick library screening result, P. aeruginosa (fold increase in extracellular AK activity)
  fold induction at 50 µM: 0.8
E. cloacae; planktonic E. cloacae, positive cutoff 3-fold increase, read-out: AK-based Prestwick library screening result, E. cloacae (fold increase in extracellular AK activity)
  fold induction at 50 µM: 1
E. coli; planktonic E. coli, positive cutoff 3-fold increase, read-out: AK-based Prestwick library screening result, E. coli (fold increase in extracellular AK activity)
  fold induction at 50 µM: 0.8

## CC1(C)OC(=O)NC1=O [Dimethadione]
E. faecium; [3]
  fold induction at 50 µM: 0.9
[1]; [4]
  fold induction at 50 µM: 0.7
K. pneumoniae; [5]
  fold induction at 50 µM: 0.8
[2]; [6]
  fold induction at 50 µM: 0.8
P. aeruginosa; [7]
  fold induction at 50 µM: 0.8
E. cloacae; [8]
  fold induction at 50 µM: 1
E. coli; [9]
  fold induction at 50 µM: 0.9

## CCCCc1cc2ccccc2c(OCCN(C)C)n1 [Dimethisoquin hydrochloride]
E. faecium; [10]
  fold induction at 50 µM: 1
[1]; [11]
  fold induction at 50 µM: 1.3
K. pneumoniae; [12]
  fold induction at 50 µM: 1.2
[2]; [13]
  fold induction at 50 µM: 1.5
P. aeruginosa; [14]
  fold induction at 50 µM: 1.2
E. cloacae; [15]
  fold induction at 50 µM: 1.5
E. coli; [16]
  fold induction at 50 µM: 1.3

## CCCCC[C@H](O)/C=C/[C@@H]1[C@@H](C/C=C\CCCC(=O)O)[C@@H](O)C[C@H]1O [Dinoprost trometamol]
E. faecium; [10]
  fold induction at 50 µM: 1
[1]; [11]
  fold induction at 50 µM: 1.4
K. pneumoniae; [12]
  fold induction at 50 µM: 1
[2]; [13]
  fold induction at 50 µM: 1.2
P. aeruginosa; [14]
  fold induction at 50 µM: 1
E. cloacae; [15]
  fold induction at 50 µM: 1.1
E. coli; [16]
  fold induction at 50 µM: 1

## COc1ccc(C(=O)c2ccccc2O)c(O)c1 [Dioxybenzone]
E. faecium; [3]
  fold induction at 50 µM: 0.8
[1]; [4]
  fold induction at 50 µM: 0.5
K. pneumoniae; [5]
  fold induction at 50 µM: 0.7
[2]; [6]
  fold induction at 50 µM: 0.6
P. aeruginosa; [7]
  fold induction at 50 µM: 0.7
E. cloacae; [8]
  fold induction at 50 µM: 1
E. coli; [9]
  fold induction at 50 µM: 0.8

## O=C(Nc1ccccc1)OCC(CN1CCCCC1)OC(=O)Nc1ccccc1 (stereo not drawn) [Diperodon hydrochloride]
E. faecium; [17]
  fold induction at 50 µM: 1.1
[1]; [18]
  fold induction at 50 µM: 1.2
K. pneumoniae; [19]
  fold induction at 50 µM: 0.9
[2]; [20]
  fold induction at 50 µM: 1.1
P. aeruginosa; [21]
  fold induction at 50 µM: 1.1
E. cloacae; [22]
  fold induction at 50 µM: 1.4
E. coli; [23]
  fold induction at 50 µM: 1.4

## C[N+]1(C)CCC(=C(c2ccccc2)c2ccccc2)CC1 [Diphemanil methylsulfate]
E. faecium; planktonic E. faecium, 384-well, […], read-out: AK-based Prestwick Library Screening Results: E. faecium (increase in extracellular AK activity)
  fold induction at 50 µM: 1.1
[1]; planktonic S. aureus, 384-well, […], read-out: AK-based Prestwick Library Screening Results: S. aureus (increase in extracellular AK activity)
  fold induction at 50 µM: 1.5
K. pneumoniae; planktonic K. pneumoniae, 384-well, […], read-out: AK-based Prestwick Library Screening Results: K. pneumoniae (increase in extracellular AK activity)
  fold induction at 50 µM: 1.1
[2]; planktonic A. baumannii, 384-well, […], read-out: AK-based Prestwick Library Screening Results: A. baumannii (increase in extracellular AK activity)
  fold induction at 50 µM: 1.3
P. aeruginosa; planktonic P. aeruginosa, 384-well, […], read-out: AK-based Prestwick Library Screening Results: P. aeruginosa (increase in extracellular AK activity)
  fold induction at 50 µM: 1
E. cloacae; planktonic E. cloacae, 384-well, […], read-out: AK-based Prestwick Library Screening Results: E. cloacae (increase in extracellular AK activity)
  fold induction at 50 µM: 1.6
E. coli; planktonic E. coli, 384-well, […], read-out: AK-based Prestwick Library Screening Results: E. coli (increase in extracellular AK activity)
  fold induction at 50 µM: 1.2

## CN(C)CCOC(c1ccccc1)c1ccccc1 [Diphenhydramine hydrochloride]
E. faecium; [17]
  fold induction at 50 µM: 0.9
[1]; [18]
  fold induction at 50 µM: 1.1
K. pneumoniae; [19]
  fold induction at 50 µM: 1
[2]; [20]
  fold induction at 50 µM: 1.3
P. aeruginosa; [21]
  fold induction at 50 µM: 1
E. cloacae; [22]
  fold induction at 50 µM: 1.4
E. coli; [23]
  fold induction at 50 µM: 1.3

## OC(CCCN1CCCCC1)(c1ccccc1)c1ccccc1 [Diphenidol hydrochloride]
E. faecium; 384-well format, cutoff for positive-scoring molecules 3-fold increase, read-out: AK-based Prestwick Library Screening Results, E. faecium (increase in extracellular AK activity)
  fold induction at 50 µM: 1
[1]; 384-well format, cutoff for positive-scoring molecules 3-fold increase, read-out: AK-based Prestwick Library Screening Results, S. aureus (increase in extracellular AK activity)
  fold induction at 50 µM: 0.7
K. pneumoniae; 384-well format, cutoff for positive-scoring molecules 3-fold increase, read-out: AK-based Prestwick Library Screening Results, K. pneumoniae (increase in extracellular AK activity)
  fold induction at 50 µM: 0.7
[2]; 384-well format, cutoff for positive-scoring molecules 3-fold increase, read-out: AK-based Prestwick Library Screening Results, A. baumannii (increase in extracellular AK activity)
  fold induction at 50 µM: 0.7
P. aeruginosa; 384-well format, cutoff for positive-scoring molecules 3-fold increase, read-out: AK-based Prestwick Library Screening Results, P. aeruginosa (increase in extracellular AK activity)
  fold induction at 50 µM: 0.8
E. cloacae; 384-well format, cutoff for positive-scoring molecules 3-fold increase, read-out: AK-based Prestwick Library Screening Results, E. cloacae (increase in extracellular AK activity)
  fold induction at 50 µM: 0.8
E. coli; 384-well format, cutoff for positive-scoring molecules 3-fold increase, read-out: AK-based Prestwick Library Screening Results, E. coli (increase in extracellular AK activity)
  fold induction at 50 µM: 0.8
